Test [1] deals with L. major. Also on record: method as in PMID 15558191. The conditions noted are these: against L. major; read-out: 50% inhibitory concentration (IC50), growth inhibition; cited from earlier work.
Test [2] deals with intracellular amastigotes of L. (V) panamensis. Put plainly: Leishmanicidal activity against intracellular amastigotes (GFP, flow cytometry, 72 h). The format is cell-based, Leishmania (Viannia) panamensis. How it is done: The leishmanicidal activity of compounds was evaluated on intracellular amastigotes of L. panamensis transfected with the green fluorescent protein gene (MHOM/CO/87/UA140pIR-GFP). Effect of each compound was determined according to the inhibition of the infection evidenced by both decrease of the infected cells and decrease of intracellular parasite load. Briefly, U-937 human cells at a concentration of 3 × 10^5 cells/mL in RPMI 1640 and 0.1 μg/mL of PMA (phorbol-12-myristate-13-acetate) were infected with promastigotes in stationary phase growth in a 15:1 parasites per cell ratio and incubated at 34 °C and 5% CO2 for 3 h. Cells were washed two times with phosphate buffer solution (PBS) to eliminate not internalized parasites. Fresh RPMI 1640 1 mL was added and cells were incubated during 24 h to guarantee multiplication of intracellular parasites.
After 24 h of infection, the culture medium was replaced by fresh culture medium containing each compound at concentrations of 20 μg/mL. After 72 h, the inhibition of the infection progress was determined. Cells were removed from the bottom plate with a trypsin/EDTA (250 mg) solution. Recovered cells were centrifuged at 1100 rpm during 10 min at 4 °C, the supernatant was discarded and cells were washed with 1 mL of cold PBS and centrifuged at 1100 rpm during 10 min at 4 °C. Supernatant was discarded and cells were suspended in 500 μL of PBS and analyzed by flow cytometry (FC 500MPL, Cytomics, Brea, CA, USA) counting 20.000 events. All determinations for each compound and standards were carried out in triplicate, in two isolated experiments. Activity of tested compounds was carried out in parallel with infection progress in culture medium alone and in culture medium with amphotericin B 0.05 μg/mL and meglumine antimoniate (10.0 μg/mL) as control drugs. […] The infected cells were exposed against each concentration of synthesized compounds during 72 h, then, cells were removed and tested by flow cytometry as described before.
Antileishmanial activity was determined according to percentage of infected cells and parasite load obtained for each experimental condition by the cytometer. Percentage of infected cells was determined as the number of positive events by double fluorescence (green for parasites and red for cells) using dotplot analysis. On the other hand, the parasitic load was determined by analysis of mean fluorescence intensity (MFI).
The parasitemia inhibition was calculated by Equation (2), where the MFI of control, corresponds to 100% of parasitemia. In turn, inhibition percentage corresponds to 100% Parasitemia.
The selectivity index (SI), was calculated by dividing the cytotoxic activity and the leishmanicidal activity using the following formula: SI = CL50/CE50.

Test [3] shares this test system. Described as above. The format is cell-based, Leishmania (Viannia) panamensis. The conditions noted are these: read-out: Leishmanicidal activity % Inhibition.
The test system of test [4] is axenic and intracellular amastigotes of Leishmania panamensis. Set-up: method as in doi:10.1007/s00044-011-9886-8. The conditions noted are these: cited from earlier work.

Where “and” joins values, the source holds several entries; their conditions need not be identical. Equal values may be shown once.

As for `CC(C)=CCC/C(C)=C/COc1ccc2ccc(=O)oc2c1` [Aurapten, 7-geranyloxycoumarin], the IC50 in test [1] is 30 µM.

Regarding `Oc1cc(Cl)ccc1Oc1ccc(Cl)cc1Cl` [Triclosan], the “SI (Selectivity Index = LC50/EC50)” value in test [2] (LC50 U-937 / EC50 intracellular amastigotes) came to 1.3. The EC50 in test [2] (U-937, 72 h, read-out: Leishmanicidal activity EC50) is 18.3 µg/mL and 63.2 µM. Also, the inhibition at 20 µg/mL in test [3] is 61.8 ± 5.5%. Further, the “effective concentration (EC50)” value in test [4] is < 24 µg/mL.

Values taken from publication PMC6271011, “Synthesis, Leishmanicidal and Cytotoxic Activity of Triclosan-Chalcone, Triclosan-Chromone and Triclosan-Coumarin Hybrids” (Molecules, 2014).
